Values of other authors, collected in US7629004B2, “Composition and process for removing and preventing mildew and fungal growth” (priority 2005, dated 2009).

Tested on: fungi
Details: fungal contamination of aircraft interior surfaces

SMILES: CC(C)O [isopropyl alcohol]
- Effectiveness of approved military cleaning procedure: ineffective
